Assay results reported in patent US11787810B2, “Diacylglyceride O-acyltransferase 2 inhibitors” (Merck Sharp & Dohme Corp., priority 2020, dated 2023).

target: human DGAT2 (hDGAT2) (Homo sapiens (Human), UniProt Q96PD7); assay: DGAT2 enzymatic activity assay (13C18-triolein formation, LC/MS/MS); format: biochemical; details: hDGAT2 Sf-9 membrane prep, 25 μM diolein, 5 μM 13C oleoyl-CoA; read-out: Human DGAT2 IC50
Protocol: Sf-9 insect cells were maintained in Grace's insect cell culture medium with 10% heated-inactivated fetal bovine serum, 1% Pluronic F-68 and 0.14 μg/ml Kanamycine sulfate at 27° C. in a shaker incubator. After infection with untagged baculovirus expressing human DGAT2 (hDGAT2) at multiplicity of infection (MOI) 3 for 48 hours, cells were harvested. Cell pellets were suspended in buffer containing 10 mM Tris-HCl pH 7.5, 1 mM EDTA, 250 mM sucrose and Complete Protease Inhibitor Cocktail (Sigma Aldrich), and sonicated on ice. Cell debris were removed by centrifugation at 2000×g for 15 minutes. Membrane fractions were isolated by ultracentrifugation (100,000×g), resuspended in the same buffer, and frozen (−80° C.) for later use. The protein concentration was determined with the Pierce™ BCA Protein Assay Kit (Thermo Fisher Scientific). Expression of protein levels was analyzed by immunoblotting with rabbit anti-DGAT2 antibody (Abcam, ab102831) and donkey anti-rabbit IgG H&L Alexa Fluor® 647 (Abcam, ab150075) followed by detection using Typhoon FLA9000 (GE Healthcare).
LC/MS/MS analyses were performed using Thermal Fisher's LX4-TSQ Vantage system. This system consists of an Agilent binary high-performance liquid chromatography (HPLC) pumps and a TSQ Vantage triple quadrupole MS/MS instrument. For each sample, 2 μL samples from the top organic layer of in-plate liquid-liquid extraction were injected onto a Thermo Betabasic C4 column (2.1 mm×20 mm, 5 μm particle size). The samples were then eluted using the following conditions; mobile phase: Isopropanol:acetonitrile/10 mM ammonium formate=50/35/15 (v/v/v), flow rate: 0.8 mL/min, temperature: 25° C. Data was acquired in positive mode using a heated electrospray ionization (HESI) interface. The operational parameters for the TSQ Vantage MS/MS instrument were a spray voltage of 3000 V, capillary temperature of 280° C., vaporizer temperature 400° C., sheath gas 45 arbitrary unit, Aux gas 10 arbitrary units, S-lens 165 and collision gas 1.0 mTorr. […] (SRM) chromatograms of ^13C18-triolein (Q1: 920.8>Q3:621.3) and internal standard ^13C21-triolein (Q1: 923.8>Q3:617.3) were collected for 33 sec. The peak area was integrated by Xcalibur Quan software. The ratio between the ^13C18triolein generated in the reaction and spiked in internal standard ^13C21-triolein was used to generate percentage inhibition and IC50 values. Compound percentage inhibition was calculated by the following formula: Inhibition %=1-[(compound response−low control)/(high control−low control)]×100%. Potent compounds were titrated and IC50 were calculated by 4 parameter sigmoidal curve fitting formula.
DGAT2 activity was determined by measuring the amount of enzymatic product ^13C18-triolein (^13C-1,2,3-Tri(cis-9-octadecenoyl)glycerol) using the membrane prep mentioned above. The assay was carried out in ABgene 384-well assay plates in a final volume of 25 μL at rt. The assay mixture contained the following: assay buffer (100 mM Tris·Cl, pH 7.0, 20 mM MgCl2, 5% ethanol), 25 μM of diolein, 5 μM of ^13C oleoyl-CoA and 8 ng/μL of DGAT2 membrane.

Sequence of human DGAT2 (hDGAT2) (Q96PD7 whole entry): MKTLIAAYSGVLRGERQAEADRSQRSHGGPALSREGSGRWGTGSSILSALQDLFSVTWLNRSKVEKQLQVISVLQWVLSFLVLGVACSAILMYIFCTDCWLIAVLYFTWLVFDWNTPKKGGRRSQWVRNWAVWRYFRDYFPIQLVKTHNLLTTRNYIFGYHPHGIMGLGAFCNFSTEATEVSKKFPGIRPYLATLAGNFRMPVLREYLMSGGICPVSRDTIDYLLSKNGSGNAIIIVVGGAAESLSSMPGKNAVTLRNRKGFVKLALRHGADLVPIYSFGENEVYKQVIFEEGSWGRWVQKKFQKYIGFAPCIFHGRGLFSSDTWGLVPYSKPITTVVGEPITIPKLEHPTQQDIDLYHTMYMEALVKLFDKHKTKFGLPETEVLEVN

Row | IC50 [µM] | SMILES
1 | 0.116 | C[C@]1(NC(=O)c2cnc3c(-c4cccc(OC(F)F)c4)nn(C4CCCOC4)c3c2)CCS(=O)(=O)C1 (single isomer, unassigned) [Example 62b]
2 | 0.027 | CCOc1cc(-c2nn(C(C)C)c3cc(C(=O)NC4(C)CS(=O)(=O)C4)cnc23)c(F)cn1 [Example 126, 3-(2-ethoxy-5-fluoropyridin-4-yl)-1-isopropyl-N-(3-methyl-1,1-dioxidothietan-3-yl)-1H-pyrazolo[4,3-b]pyridine-6-carboxamide]
3 | 0.05 | CC(C)n1nc(-c2cccc(OC(F)F)c2)c2ncc(C(=O)NC3(C(C)(C)O)CCOC3)cc21 (single isomer, unassigned) [Example 47b, 3-(3-(difluoromethoxy)phenyl)-N-(3-(2-hydroxypropan-2-yl)tetrahydrofuran-3-yl)-1-isopropyl-1H-pyrazolo[4,3-b]pyridine-6-carboxamide]
4 | 2.73 | CC(O)C(C)NC(=O)c1cnc2c(-c3cccc(OC(F)F)c3)nn(C(C)C)c2c1 (single isomer, unassigned) [Example 45d, 3-(3-(difluoromethoxy)phenyl)-N-(3-hydroxybutan-2-yl)-1-isopropyl-1H-pyrazolo[4,3-b]pyridine-6-carboxamide]
5 | 0.041 | CC(C)n1nc(-c2cccc(OC(F)F)c2)c2ncc(C(=O)NC(CO)C(F)(F)F)cc21 (racemic) [Example 52, 3-(3-(difluoromethoxy)phenyl)-1-isopropyl-N-(1,1,1-trifluoro-3-hydroxypropan-2-yl)-1H-pyrazolo[4,3-b]pyridine-6-carboxamide]
6 | 0.071 | CCC(C)n1nc(-c2cccc(OC(F)F)c2)c2ncc(C(=O)NC3(C)CS(=O)(=O)C3)cc21 (single isomer, unassigned) [Example 66a, 3-[3-(difluoromethoxy)phenyl]-N-(3-methyl-1,1-dioxo-thietan-3-yl)-1-sec-butyl-pyrazolo[4,3-b]pyridine-6-carboxamide]
7 | 0.018 | CC(O)Cn1nc(-c2cccc(OC(F)F)c2)c2ncc(C(=O)NC3(C)CS(=O)(=O)C3)cc21 (single isomer, unassigned) [Example 68a, 3-(3-(difluoromethoxy)phenyl)-1-(2-hydroxypropyl)-N-(3-methyl-1,1-dioxidothietan-3-yl)-1H-pyrazolo[4,3-b]pyridine-6-carboxamide]
8 | 0.108 | CC(C)n1nc(-c2cccc(OC(F)F)c2)c2ncc(C(=O)NC3(C(C)O)CCOC3)cc21 (single isomer, unassigned) [Example 50c, 3-(3-(difluoromethoxy)phenyl)-N-(3-(1-hydroxyethyl)tetrahydrofuran-3-yl)-1-isopropyl-1H-pyrazolo[4,3-b]pyridine-6-carboxamide]
9 | 0.0044 | CC(O)C(C)n1nc(-c2cccc(OC(F)F)c2)c2ncc(C(=O)NC3(C)CS(=O)(=O)C3)cc21 (single isomer, unassigned) [Example 78b, 3-(3-(difluoromethoxy)phenyl)-1-(3-hydroxybutan-2-yl)-N-(3-methyl-1,1-dioxidothietan-3-yl)-1H-pyrazolo[4,3-b]pyridine-6-carboxamide]
10 | 5.45 | COC1(c2cccc(-c3nn(C(C)C)c4cc(C(=O)NC5(C)CS(=O)(=O)C5)cnc34)c2)CC1 [Example 128, 1-isopropyl-3-(3-(1-methoxycyclopropyl)phenyl)-N-(3-methyl-1,1-dioxidothietan-3-yl)-1H-pyrazolo[4,3-b]pyridine-6-carboxamide]
11 | 0.05 | CC(C)n1cc(-c2cccc(OC(F)F)c2)c2ncc(C(=O)NC3(C)CS(=O)(=O)C3)cc21 [Example 37, 3-(3-(difluoromethoxy)phenyl)-1-isopropyl-N-(3-methyl-1,1-dioxidothietan-3-yl)-1H-pyrrolo[3,2-b]pyridine-6-carboxamide]
12 | 0.073 | CC1(NC(=O)c2cnc3c(-c4cccc(OC(F)F)c4)nn(CC(O)C(F)(F)F)c3c2)CS(=O)(=O)C1 (single isomer, unassigned) [Example 67a, 3-(3-(difluoromethoxy)phenyl)-N-(3-methyl-1,1-dioxidothietan-3-yl)-1-(3,3,3-trifluoro-2-hydroxypropyl)-1H-pyrazolo[4,3-b]pyridine-6-carboxamide]
13 | 0.038 | CC(C)n1nc(-c2cccc(OC(F)F)c2)c2ncc(C(=O)NC3(CO)CCOC3)cc21 (single isomer, unassigned) [Example 39b, 3-[3-(difluoromethoxy)phenyl]-N-[3-(hydroxymethyl)tetrahydrofuran-3-yl]-1-isopropyl-pyrazolo[4,3-b]pyridine-6-carboxamide]
14 | 0.132 | CC1(NC(=O)c2cnc3c(-c4cccc(OC(F)F)c4)nn([C@@H]4COC[C@H]4O)c3c2)CS(=O)(=O)C1 (single isomer, unassigned) [Example 53b, 3-(3-(difluoromethoxy)phenyl)-1-((trans)-4-hydroxytetrahydrofuran-3-yl)-N-(3-methyl-1,1-dioxidothietan-3-yl)-1H-pyrazolo[4,3-b]pyridine-6-carboxamide]
15 | 0.0074 | CC1(NC(=O)c2cnc3c(-c4cccc(OC(F)F)c4)nn(C4CCOC(C)(C)C4)c3c2)CS(=O)(=O)C1 (single isomer, unassigned) [Example 77b, 3-(3-(difluoromethoxy)phenyl)-1-(2,2-dimethyltetrahydro-2H-pyran-4-yl)-N-(3-methyl-1,1-dioxidothietan-3-yl)-1H-pyrazolo[4,3-b]pyridine-6-carboxamide]
16 | 0.015 | CC(C)n1nc(-c2cccc(OC(F)F)c2)c2ncc(C(=O)NC(C)(C)C(C)O)cc21 (single isomer, unassigned) [Example 46a, 3-(3-(difluoromethoxy)phenyl)-N-(3-hydroxy-2-methylbutan-2-yl)-1-isopropyl-1H-pyrazolo[4,3-b]pyridine-6-carboxamide]
17 | 0.009 | CC1(NC(=O)c2cnc3c(-c4cccc(OC(F)F)c4)nn(C4CCOCC4F)c3c2)CS(=O)(=O)C1 (single isomer, unassigned) [Example 75b, 3-(3-(difluoromethoxy)phenyl)-1-(3-fluorotetrahydro-2H-pyran-4-yl)-N-(3-methyl-1,1-dioxidothietan-3-yl)-1H-pyrazolo[4,3-b]pyridine-6-carboxamide]
18 | 0.0063 | CC(C)n1nc(-c2cccc(OC(F)F)c2)c2ncc(C(=O)NC3(C)CCOC3)cc21 (single isomer, unassigned) [Example 48a, 3-(3-(difluoromethoxy)phenyl)-1-isopropyl-N-(3-methyltetrahydrofuran-3-yl)-1H-pyrazolo[4,3-b]pyridine-6-carboxamide]

same assay, conditions: table head without 'Human'; same membrane assay; read-out: DGAT2 IC50

Row | IC50 [µM] | SMILES
19 | 0.862 | CC(n1nc(-c2cc(OC(F)F)ncc2F)c2cnc(C(=O)NC3(C)CS(=O)(=O)C3)cc21)C(C)(C)O (single isomer, unassigned) [Example 133a, 3-(2-(difluoromethoxy)-5-fluoropyridin-4-yl)-1-(3-hydroxy-3-methylbutan-2-yl)-N-(3-methyl-1,1-dioxidothietan-3-yl)-1H-pyrazolo[4,3-c]pyridine-6-carboxamide]
20 | 0.231 | CC(n1nc(-c2cc(OC(F)(F)F)ccc2F)c2ncc(C(=O)NC3(C)CS(=O)(=O)C3)cc21)C(C)(C)O (single isomer, unassigned) [Example 132a, 3-(2-fluoro-5-(trifluoromethoxy)phenyl)-1-(3-hydroxy-3-methylbutan-2-yl)-N-(3-methyl-1,1-dioxidothietan-3-yl)-1H-pyrazolo[4,3-b]pyridine-6-carboxamide]
